Data as given in ChEMBL document CHEMBL5291721, “A preclinical secondary pharmacology resource illuminates target-adverse drug reaction associations of marketed drugs” (Nat Commun, 2023).

Assays:
[1] = target: T1, Alpha-1A adrenergic receptor (Homo sapiens, UniProt P35348)
T1 sequence (P35348 whole entry): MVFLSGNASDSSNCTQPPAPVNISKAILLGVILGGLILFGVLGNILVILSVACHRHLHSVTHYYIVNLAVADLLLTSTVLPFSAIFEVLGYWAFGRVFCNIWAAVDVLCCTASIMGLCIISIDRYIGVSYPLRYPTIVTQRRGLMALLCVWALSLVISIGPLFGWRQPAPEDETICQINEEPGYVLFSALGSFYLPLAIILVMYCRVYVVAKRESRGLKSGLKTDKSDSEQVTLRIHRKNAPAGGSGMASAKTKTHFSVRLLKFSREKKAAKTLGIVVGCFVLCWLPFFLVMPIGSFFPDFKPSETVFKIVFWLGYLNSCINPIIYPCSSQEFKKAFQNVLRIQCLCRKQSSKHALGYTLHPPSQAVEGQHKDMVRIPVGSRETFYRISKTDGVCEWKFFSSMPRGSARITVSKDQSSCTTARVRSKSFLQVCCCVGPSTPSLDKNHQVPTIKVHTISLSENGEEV

[2] = target: Beta-2 adrenergic receptor (Homo sapiens, UniProt P07550)
[3] = target: T2, Gastrin/cholecystokinin type B receptor (Homo sapiens, UniProt P32239)
T2 sequence (P32239 whole entry): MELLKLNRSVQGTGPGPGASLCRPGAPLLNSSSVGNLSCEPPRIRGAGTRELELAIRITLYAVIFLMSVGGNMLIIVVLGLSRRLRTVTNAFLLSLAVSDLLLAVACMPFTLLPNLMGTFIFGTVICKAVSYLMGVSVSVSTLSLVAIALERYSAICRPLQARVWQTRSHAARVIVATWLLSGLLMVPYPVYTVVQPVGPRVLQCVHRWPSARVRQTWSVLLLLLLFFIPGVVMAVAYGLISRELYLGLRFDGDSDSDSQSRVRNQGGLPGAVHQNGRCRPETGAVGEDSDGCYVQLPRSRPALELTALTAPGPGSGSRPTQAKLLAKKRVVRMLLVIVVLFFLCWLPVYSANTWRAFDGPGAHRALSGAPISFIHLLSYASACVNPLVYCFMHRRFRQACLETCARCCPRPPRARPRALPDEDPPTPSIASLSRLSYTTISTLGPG

[4] = target: Cannabinoid receptor 1 (Homo sapiens, UniProt P21554)
[5] = target: T3, 5-hydroxytryptamine receptor 1A (Homo sapiens, UniProt P08908); assay type: functional, cell-based
T3 sequence (P08908 whole entry): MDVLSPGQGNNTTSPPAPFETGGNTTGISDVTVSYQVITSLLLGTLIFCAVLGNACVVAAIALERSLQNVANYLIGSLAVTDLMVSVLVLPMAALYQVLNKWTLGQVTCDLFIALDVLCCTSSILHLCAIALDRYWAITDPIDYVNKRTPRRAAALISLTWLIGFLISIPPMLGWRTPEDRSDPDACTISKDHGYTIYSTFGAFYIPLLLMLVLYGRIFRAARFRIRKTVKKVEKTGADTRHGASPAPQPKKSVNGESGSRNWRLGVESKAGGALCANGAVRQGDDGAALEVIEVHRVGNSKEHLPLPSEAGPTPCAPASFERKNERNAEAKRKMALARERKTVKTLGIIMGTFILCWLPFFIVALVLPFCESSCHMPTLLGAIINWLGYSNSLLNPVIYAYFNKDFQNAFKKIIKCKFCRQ

[6] = target: T4, 5-hydroxytryptamine receptor 2B (Homo sapiens, UniProt P41595); assay type: functional, cell-based
[7] = target: T5, Glucocorticoid receptor (Homo sapiens, UniProt P04150)
T5 sequence (P04150 whole entry): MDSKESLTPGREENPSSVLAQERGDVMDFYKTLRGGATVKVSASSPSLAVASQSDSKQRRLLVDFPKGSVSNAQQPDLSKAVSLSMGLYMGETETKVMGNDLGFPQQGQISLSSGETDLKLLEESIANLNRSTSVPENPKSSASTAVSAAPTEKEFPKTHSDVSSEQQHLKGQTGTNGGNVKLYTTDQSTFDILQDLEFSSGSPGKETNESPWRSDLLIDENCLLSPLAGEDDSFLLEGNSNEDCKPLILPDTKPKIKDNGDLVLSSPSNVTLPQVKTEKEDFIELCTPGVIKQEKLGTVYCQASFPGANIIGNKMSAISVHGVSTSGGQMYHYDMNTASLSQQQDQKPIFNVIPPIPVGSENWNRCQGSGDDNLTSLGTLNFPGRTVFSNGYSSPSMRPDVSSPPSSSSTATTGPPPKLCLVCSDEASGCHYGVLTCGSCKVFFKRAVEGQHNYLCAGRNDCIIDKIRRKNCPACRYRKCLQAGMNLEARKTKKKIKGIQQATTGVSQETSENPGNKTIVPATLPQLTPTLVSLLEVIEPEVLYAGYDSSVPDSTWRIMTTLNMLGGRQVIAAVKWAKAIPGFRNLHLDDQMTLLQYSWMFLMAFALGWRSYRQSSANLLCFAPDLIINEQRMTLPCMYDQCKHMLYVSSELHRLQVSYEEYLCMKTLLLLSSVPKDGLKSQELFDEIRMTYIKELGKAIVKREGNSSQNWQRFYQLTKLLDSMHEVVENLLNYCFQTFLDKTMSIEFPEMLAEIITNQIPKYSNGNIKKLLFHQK

[8] = target: 5-hydroxytryptamine receptor 2A (Homo sapiens, UniProt P28223); assay type: functional, cell-based
[9] = target: T4, 5-hydroxytryptamine receptor 2B; assay type: functional, cell-based; remark: listed apart in the source
[10] = target: Vascular endothelial growth factor receptor 2 (Homo sapiens, UniProt P35968); assay type: functional
Note: assay procedure not described here.

T4 sequence (P41595 whole entry): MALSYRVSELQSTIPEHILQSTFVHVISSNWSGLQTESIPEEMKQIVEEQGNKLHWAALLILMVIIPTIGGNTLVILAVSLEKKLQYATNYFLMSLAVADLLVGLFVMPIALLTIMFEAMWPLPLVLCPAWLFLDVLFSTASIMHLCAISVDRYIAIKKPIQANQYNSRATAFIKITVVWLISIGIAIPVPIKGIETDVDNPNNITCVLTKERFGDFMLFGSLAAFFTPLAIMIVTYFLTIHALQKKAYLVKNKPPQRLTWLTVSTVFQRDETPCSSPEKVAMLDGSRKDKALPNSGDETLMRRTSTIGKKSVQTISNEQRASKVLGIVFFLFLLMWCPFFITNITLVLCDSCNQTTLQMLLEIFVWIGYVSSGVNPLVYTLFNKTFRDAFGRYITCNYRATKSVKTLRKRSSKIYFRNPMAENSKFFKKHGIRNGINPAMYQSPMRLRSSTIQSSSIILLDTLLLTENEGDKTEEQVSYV
Chain of Beta-2 adrenergic receptor (P07550 whole entry): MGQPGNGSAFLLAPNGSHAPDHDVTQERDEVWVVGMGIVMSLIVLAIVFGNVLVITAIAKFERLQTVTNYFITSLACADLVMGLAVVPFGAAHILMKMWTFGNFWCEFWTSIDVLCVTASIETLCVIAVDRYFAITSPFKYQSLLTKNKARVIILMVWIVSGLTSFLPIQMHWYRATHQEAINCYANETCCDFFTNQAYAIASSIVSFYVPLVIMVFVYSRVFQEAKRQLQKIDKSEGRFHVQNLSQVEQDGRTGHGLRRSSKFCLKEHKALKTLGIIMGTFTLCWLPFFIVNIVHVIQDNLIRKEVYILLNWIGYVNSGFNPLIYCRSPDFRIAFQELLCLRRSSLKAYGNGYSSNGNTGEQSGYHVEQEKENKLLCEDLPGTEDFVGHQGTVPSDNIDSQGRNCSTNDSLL
Chain of 5-hydroxytryptamine receptor 2A (P28223 whole entry): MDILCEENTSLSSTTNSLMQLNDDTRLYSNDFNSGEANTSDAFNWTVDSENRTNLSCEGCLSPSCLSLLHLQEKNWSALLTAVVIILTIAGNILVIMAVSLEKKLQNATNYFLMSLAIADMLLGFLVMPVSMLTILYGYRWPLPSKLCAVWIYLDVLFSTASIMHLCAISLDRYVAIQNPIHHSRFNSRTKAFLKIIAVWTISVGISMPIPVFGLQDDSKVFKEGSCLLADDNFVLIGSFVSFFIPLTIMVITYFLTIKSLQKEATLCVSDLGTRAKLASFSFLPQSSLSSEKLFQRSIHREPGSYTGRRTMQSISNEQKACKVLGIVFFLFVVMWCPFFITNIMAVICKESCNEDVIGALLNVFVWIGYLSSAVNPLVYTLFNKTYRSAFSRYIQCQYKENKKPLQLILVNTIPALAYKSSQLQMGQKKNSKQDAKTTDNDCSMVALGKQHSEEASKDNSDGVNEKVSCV
Chain of Cannabinoid receptor 1 (P21554 whole entry): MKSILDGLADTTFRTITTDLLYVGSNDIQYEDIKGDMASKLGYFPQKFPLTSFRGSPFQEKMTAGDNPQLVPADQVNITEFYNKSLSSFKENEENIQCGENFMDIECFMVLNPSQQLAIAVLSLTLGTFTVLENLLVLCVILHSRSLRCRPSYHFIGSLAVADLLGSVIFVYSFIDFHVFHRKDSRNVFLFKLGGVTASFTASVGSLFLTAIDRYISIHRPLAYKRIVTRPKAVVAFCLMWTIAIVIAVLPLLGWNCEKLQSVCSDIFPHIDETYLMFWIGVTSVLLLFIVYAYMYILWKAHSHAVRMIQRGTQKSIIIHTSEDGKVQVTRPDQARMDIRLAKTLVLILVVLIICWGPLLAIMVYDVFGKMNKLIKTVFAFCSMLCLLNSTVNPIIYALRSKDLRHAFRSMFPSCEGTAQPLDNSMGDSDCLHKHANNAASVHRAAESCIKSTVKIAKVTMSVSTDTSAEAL
Chain of Vascular endothelial growth factor receptor 2 (P35968 whole entry): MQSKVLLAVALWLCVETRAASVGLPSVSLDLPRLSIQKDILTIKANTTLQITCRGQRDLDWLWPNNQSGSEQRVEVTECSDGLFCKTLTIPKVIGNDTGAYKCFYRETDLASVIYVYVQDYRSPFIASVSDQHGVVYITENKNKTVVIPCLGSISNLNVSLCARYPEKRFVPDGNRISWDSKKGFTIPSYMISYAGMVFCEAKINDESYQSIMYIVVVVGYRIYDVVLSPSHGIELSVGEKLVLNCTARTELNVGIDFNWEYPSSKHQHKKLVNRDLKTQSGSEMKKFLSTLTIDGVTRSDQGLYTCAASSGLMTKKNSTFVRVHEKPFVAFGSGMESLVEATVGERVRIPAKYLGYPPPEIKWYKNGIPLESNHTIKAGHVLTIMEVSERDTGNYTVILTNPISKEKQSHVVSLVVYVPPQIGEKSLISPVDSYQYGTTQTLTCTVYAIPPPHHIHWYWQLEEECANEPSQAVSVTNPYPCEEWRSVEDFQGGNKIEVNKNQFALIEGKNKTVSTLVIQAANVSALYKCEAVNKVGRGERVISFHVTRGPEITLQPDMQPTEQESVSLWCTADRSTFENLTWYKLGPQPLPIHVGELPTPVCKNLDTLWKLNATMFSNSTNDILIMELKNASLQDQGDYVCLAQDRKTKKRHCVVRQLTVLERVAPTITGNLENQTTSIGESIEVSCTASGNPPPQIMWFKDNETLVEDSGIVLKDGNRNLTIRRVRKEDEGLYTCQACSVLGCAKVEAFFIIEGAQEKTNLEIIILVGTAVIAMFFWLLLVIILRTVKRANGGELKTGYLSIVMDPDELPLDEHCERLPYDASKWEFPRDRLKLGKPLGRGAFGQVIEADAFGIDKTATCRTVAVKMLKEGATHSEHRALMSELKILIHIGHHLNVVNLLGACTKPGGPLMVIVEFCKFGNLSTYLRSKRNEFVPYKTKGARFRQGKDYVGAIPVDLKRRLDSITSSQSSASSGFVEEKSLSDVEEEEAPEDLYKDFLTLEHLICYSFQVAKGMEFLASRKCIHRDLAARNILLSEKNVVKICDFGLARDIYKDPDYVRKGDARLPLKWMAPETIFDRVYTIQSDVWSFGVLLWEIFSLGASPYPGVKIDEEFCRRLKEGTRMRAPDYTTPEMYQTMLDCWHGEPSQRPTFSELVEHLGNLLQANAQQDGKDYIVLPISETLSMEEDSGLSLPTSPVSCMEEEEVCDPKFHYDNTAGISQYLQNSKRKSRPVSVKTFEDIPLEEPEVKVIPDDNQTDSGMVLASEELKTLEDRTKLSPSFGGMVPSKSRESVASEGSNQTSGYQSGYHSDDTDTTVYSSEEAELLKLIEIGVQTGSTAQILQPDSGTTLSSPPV

Structure (SMILES)	AC50 [1] [µM]	AC50 [2] [µM]	AC50 [3] [µM]	AC50 [4] [µM]	AC50 [5] [µM]	AC50 [6] [µM]	AC50 [7] [µM]	AC50 [8] [µM]	AC50 [9] [µM]	AC50 [10] [µM]
CCCCC1C(=O)N(c2ccccc2)N(c2ccccc2)C1=O [PHENYLBUTAZONE]	> 10	> 10	> 30	> 10	> 10	> 10	> 10	–	–	–
CC(CCc1ccc(O)cc1)NCCc1ccc(O)c(O)c1 (stereo unspecified) [DOBUTAMINE]	0.255	5.07	> 30	> 30	> 10	> 30	> 30	–	–	–
C[C@]12CC[C@@H]3c4ccc(O)cc4C[C@@H](CCCCCCCCC[S+]([O-])CCCC(F)(F)C(F)(F)F)[C@H]3[C@@H]1CC[C@@H]2O (stereo partly specified) [FULVESTRANT]	–	–	> 30	–	–	> 30	1.1	> 30	–	–
OC1(c2ccc(Cl)cc2)c2ccccc2C2=NCCN21 (stereo unspecified) [MAZINDOL]	> 10	> 30	> 30	> 10	> 30	> 30	> 30	–	–	–
O=[N+]([O-])c1ccc(O)c2ncccc12 [NITROXOLINE]	–	–	–	–	> 30	> 30	–	> 30	> 30	–
Oc1ccc2c(c1)CC[C@H](c1ccccc1)[C@@H]2c1ccc(OCCN2CCCC2)cc1 [LASOFOXIFENE]	–	–	> 3	–	> 30	9.49	9.3	12	–	–
CC(C)COCC(CN(Cc1ccccc1)c1ccccc1)N1CCCC1 (stereo unspecified) [BEPRIDIL]	–	> 30	> 30	10	> 10	28	> 30	> 30	–	–
C[C@]12CCC(=O)C(O)=C1CC[C@@H]1[C@@H]2CC[C@]2(C)C(=O)CC[C@@H]12 [FORMESTANE]	–	> 30	> 30	–	> 30	> 30	> 30	> 30	–	–
CCC(=O)O[C@]1(C(=O)SCF)[C@H](C)C[C@H]2[C@@H]3C[C@H](F)C4=CC(=O)C=C[C@]4(C)[C@@]3(F)[C@@H](O)C[C@@]21C [FLUTICASONE PROPIONATE]	> 10	> 30	> 30	> 30	> 10	> 30	–	–	> 30	> 30
CCC(C)C1(CC)C(=O)NC(=O)NC1=O (stereo unspecified) [BUTABARBITAL]	–	–	> 30	–	–	> 30	> 30	> 30	–	–
[H]/N=C(/N)N/C(=N/[H])NCCc1ccccc1 [PHENFORMIN]	15	> 10	> 30	> 30	> 30	> 10	> 30	–	–	–
Cc1cc2cc3c(C)cc(=O)oc3c(C)c2o1 [TRIOXSALEN]	> 10	> 10	–	> 10	> 10	> 10	–	–	–	–
C/N=C(\NC)NCc1ccccc1 [BETHANIDINE]	–	–	> 30	–	> 30	> 30	> 30	> 30	–	–
